According to patent US8614068B2, “Process for producing hepcidin” (Hellenic Pasteur Institute, priority 2007, dated 2013):
“Also recorded” adds a separate entry of the source.

Columns and labels:
TfR1 = test: Western blot of TfR1 expression in macrophages; assay type: cell-based, murine
Protocol: (§1) A, RAW 264.7 macrophages were treated with 11 μM and 10 μM of synthetic hepcidin-25 (having the sequence of SEQ ID NO. 2) and Hep-25His (having the sequence of SEQ ID NO. 6) for 4 h at 37° C. or with PBS as negative control. Cell lysates were subjected to 8% SDS PAGE and Western Blot with antibodies against TfR1, Ferroportin and actin as loading control. B, The signal density of ferroportin, TfR1 and actin protein bands from two independent experiments were quantified by densitometry and their intensity relative to actin was calculated. […] Hep25-His, negative peptide and PBS was incubated with Raw 264.7 macrophages, followed by cross-linking with DSS. Cell lysates were incubated with Ni2-NTA and eluates were analyzed by Western blot using anti-FPN1 Ab. […] HEK293-Fpn cells were induced with ponasterone for 24 h and then treated with Hep25-His or synthetic hepcidin 25 (s. Hep25) for 3 h. Fluorescence was visualized with a Leica TCS confocal microscope.
Western blotting—1×10^6 cells (RAW 264.7, THP-1 or J774) were plated in […] plates and after 12-20 h cells were treated with hepcidins in serum-free DMEM for 4 h, at 37° C. Afterwards, cells were re-suspended in lysis buffer (1% Triton, 25 mM Hepes pH 7.4, 150 mM NaCl, 10% Glycerol, 5 mM EDTA, 0.5 mM PMSF, protein inhibitors (Roche, Mannheim, Germany) and quantified by Bradford assay (Biorad, Hercules, Calif.). 30 μg of cell lysate was analyzed on 8% SDS-PAGE. Proteins were transferred to Hybond C nitrocellulose membrane (Amersham Biosciences, Piscataway, N.J.) and the membranes were incubated with the primary antibodies rabbit anti-ferroportin (Alpha Diagnostics, San Antonio, Tex.), mouse anti-TfR1 (Zymed, Invitrogen, Carlsbad, Calif.) and mouse anti-β actin (Santa Cruz Biotech, Santa Cruz, Calif.), in a dilution of 1:1000, overnight at 4° C. […] Specific signal was detected with a chemiluminescence assay kit (ECL, Amersham Biosciences, Piscataway, N.J.). The bands were quantified by densitometry using the Quantity-One (Biorad, Hercules, Calif.) software. […]

ferroportin (FPN1) = molecular target: T1, ferroportin (FPN1) (Mus musculus, UniProt Q9JHI9); test: Cross-linking and pull-down assay; assay type: binding, murine; conditions: RAW 264.7, 10 nM, cross-linking with DSS, Ni2-NTA pull-down, anti-ferroportin Western blot
T1 construct: endogenous in cells; host or cells: RAW 264.7 murine macrophages
T1 sequence (Q9JHI9 1-570): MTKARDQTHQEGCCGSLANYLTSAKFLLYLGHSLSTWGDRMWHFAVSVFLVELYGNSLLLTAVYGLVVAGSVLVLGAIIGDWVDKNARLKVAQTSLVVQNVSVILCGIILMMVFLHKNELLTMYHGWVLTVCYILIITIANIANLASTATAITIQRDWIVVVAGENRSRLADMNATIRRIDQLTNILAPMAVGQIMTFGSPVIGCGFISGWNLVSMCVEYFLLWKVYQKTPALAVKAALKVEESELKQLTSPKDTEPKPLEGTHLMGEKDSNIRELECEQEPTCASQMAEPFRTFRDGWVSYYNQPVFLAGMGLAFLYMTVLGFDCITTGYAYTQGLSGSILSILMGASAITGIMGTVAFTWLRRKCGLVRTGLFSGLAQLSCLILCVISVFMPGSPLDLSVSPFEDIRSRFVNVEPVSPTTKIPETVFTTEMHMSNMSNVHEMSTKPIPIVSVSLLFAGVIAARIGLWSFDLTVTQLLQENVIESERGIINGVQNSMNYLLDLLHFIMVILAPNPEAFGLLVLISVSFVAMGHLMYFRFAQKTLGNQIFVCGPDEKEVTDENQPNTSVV
Protocol: as §1, with “calculated. Data are expressed as mean of ratios of TfR1 or to actin levels ±S.D. for each experimental condition. *p<0.01.” for “calculated.”
Disuccinimidyl suberate (DSS, Pierce, Rockford, Ill.) was added for 20 min at room temperature, followed by quenching with 20 mM TriseHCl pH 7.4 for 20 min. […] Bound proteins were eluted with 1 M imidazole and analyzed by Western blot using anti-FPN1 antibody as described above. […]

E. coli strain ML35 = conditions: at 30 μM
Protocol: Antimicrobial activity of recombinant tagged hepcidins. E. coli strain ML35 was subjected to CFU assay in order to determine the antimicrobial activity of synthetic hepcidin 25 (s. Hep25) having the sequence os SEQ ID NO. 2, Hep-25His having the sequence of SEQ ID NO. 6, Hep-25MycHis having the sequence of SEQ ID NO. 8, Hep-20MycHis having the sequence of SEQ ID NO. 7 and negative peptide having the sequence SEQ ID NO. 9 at the concentrations indicated for 2 h at 37° C. Sodium phosphate buffer was used as negative control.
Antimicrobial assay—All purified recombinant hepcidins were tested for antibacterial activity against E. coli ML35 and BL21(DE) is a CFU assay (Porter E. M., van Dam E., Valore E. V., Ganz T., Broad-spectrum antimicrobial activity of human intestinal defensin 5, Infect. Immun. 65 (1997) 2396-2401.). Bacterial cell cultures were grown to OD600=0.2 (5×10^7 cfu/ml) and resuspended to a final concentration of 10^6 cfu/ml in 20mM sodium phosphate buffer, pH7.4. Various concentrations of peptides were added to a final volume of 100 μl and after incubation for 2 h at 37° C., surviving cells were plated in triplicates to LB/agar plates.
Antimicrobial activity of recombinant hepcidins—The colony forming unit assay (E. M. Porter, E. van Dam, E. V. Valore, T. Ganz, Broad-spectrum antimicrobial activity of human intestinal defensin 5, Infect. Immun. 65 (1997) 2396-2401) was used to determine the antimicrobial activity of the purified recombinant hepcidin forms against the E. coli strain, ML35. […] Surviving microbes were counted following incubation with various concentrations of recombinant hepcidin preparations, synthetic hepcidin or negative peptide for 2 h at 37° C.

hepcidin-25His [Hep-25His]
reduction of TfR1 in comparison to untreated cells (TfR1; RAW 264.7, 10 μM, 4 h at 37° C.): 48%±17.7
decrease in TfR1 expression (TfR1; RAW 264.7 macrophages): ~50%
specific binding to FPN1 (ferroportin (FPN1)): binds specifically to FPN1; also recorded: binds specifically to FPNI
specific binding to FPN1 (ferroportin (FPN1); listed as recombinant peptide): can specifically bind to its receptor (ferroportin)
reduction of the number of surviving bacteria (E. coli strain ML35): 1000 fold
